In assay [1] the target is T1, Dickkopf-related protein 1 (Homo sapiens, UniProt O94907).
T1 sequence (O94907 whole entry): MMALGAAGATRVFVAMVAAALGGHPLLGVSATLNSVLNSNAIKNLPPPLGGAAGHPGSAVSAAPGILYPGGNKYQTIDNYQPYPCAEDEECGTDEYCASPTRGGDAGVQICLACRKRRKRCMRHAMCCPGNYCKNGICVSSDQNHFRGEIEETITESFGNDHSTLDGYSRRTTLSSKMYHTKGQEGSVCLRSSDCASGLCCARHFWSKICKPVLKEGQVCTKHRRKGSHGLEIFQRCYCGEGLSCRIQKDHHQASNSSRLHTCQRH
Put plainly: Inhibition of human DKK1 in MC3T3E1/TetON-Wnt1/STF-Luc#5 cells assessed as DKK1 neutralizing activity by Wnt1-induced TCF/LEF luciferase reporter gene assay.

For assay [2], the target named is T2, Dickkopf WNT-signaling pathway inhibitor 1 (Rattus norvegicus) (UniProt A6I0Z0).
T2 sequence (whole entry): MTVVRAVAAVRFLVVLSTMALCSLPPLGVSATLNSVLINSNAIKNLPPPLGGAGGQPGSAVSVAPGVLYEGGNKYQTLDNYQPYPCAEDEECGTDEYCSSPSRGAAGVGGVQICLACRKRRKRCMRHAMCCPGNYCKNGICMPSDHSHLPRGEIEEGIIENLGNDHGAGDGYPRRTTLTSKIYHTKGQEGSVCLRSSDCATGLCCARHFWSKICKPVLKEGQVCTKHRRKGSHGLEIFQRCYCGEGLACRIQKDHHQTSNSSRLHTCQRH
Put plainly: Inhibition of biotin-labeled rat recombinant DKK1 assessed as reduction in DKK1 interaction with LRP-6/Fc incubated overnight by chemiluminescence based Alpha-screen assay.

Assay [3] addresses T3, Dickkopf-related protein 1 (Homo sapiens) (UniProt O94907).
T3 sequence (whole entry): T1 sequence (O94907 whole entry)
Put plainly: Inhibition of biotin-labeled human recombinant DKK1 assessed as reduction in DKK1 interaction with LRP-6/Fc incubated overnight by chemiluminescence based Alpha-screen assay.

For seven compounds, IC50 and inhibition results are on record in ChEMBL document CHEMBL4417633, “Inhibitory polypeptides specific to WNT inhibitors” (2017).

pIC50: −log10 of the molar value. Active and inactive are the calls of the source. No cut-off for these calls is given here. Where a SMILES comes first, the peptide text is derived from it.

On to `CSCC[C@H](NC(=O)[C@@H]1CCCN1C(=O)[C@H](Cc1ccc(O)cc1)NC(=O)[C@H](CS)NC(=O)[C@H](Cc1cnc[nH]1)NC(=O)[C@@H]1CCCN1C(=O)[C@H](Cc1cnc[nH]1)NC(=O)[C@H](CC(N)=O)NC(=O)[C@H](CCCNC(=N)N)NC(=O)[C@H](CS)NC(=O)[C@H](CCC(N)=O)NC(=O)[C@H](Cc1ccccc1)NC(=O)[C@H](Cc1ccc(O)cc1)NC(=O)[C@H](CO)NC(=O)[C@@H](NC(=O)[C@@H]1CCCN1C(=O)[C@@H](N)CS)C(C)C)C(=O)N[C@@H](CCC(=O)O)C(=O)N[C@@H](Cc1c[nH]c2ccccc12)C(=O)N[C@@H](CCCNC(=N)N)C(=O)N[C@@H](CS)C(=O)N[C@@H](CC(=O)O)C(=O)NCC(=O)N[C@@H](Cc1ccccc1)C(=O)N1CCC[C@H]1C(=O)N[C@@H](CC(=O)O)C(=O)N[C@@H](CS)C(=O)N[C@@H](CC(C)C)C(=O)N[C@@H](CC(=O)O)C(=O)N[C@@H](CCC(=O)O)C(=O)N[C@@H](CO)C(=O)N[C@@H](CC(=O)O)C(=O)N[C@@H](CCC(=O)O)C(=O)N[C@@H](CCCCN)C(=O)NCC(=O)N[C@@H](CS)C(=O)NCC(=O)NCC(=O)NCC(=O)NCC(=O)O` (H-CPVSYFQCRNHPHCYPMEWRCDGFPDCLDESDEKGCGGGG-OH), for which, in assay [1], the pIC50 is 8.52 to 9.10. Besides, the inhibition result in assay [2] and in assay [3] was “Active” throughout.
In the case of `CSCC[C@H](NC(=O)[C@@H]1CCCN1C(=O)[C@H](Cc1ccc(O)cc1)NC(=O)[C@H](CS)NC(=O)[C@H](Cc1cnc[nH]1)NC(=O)[C@@H]1CCCN1C(=O)[C@H](Cc1cnc[nH]1)NC(=O)[C@H](CCCNC(=N)N)NC(=O)[C@H](CCCNC(=N)N)NC(=O)[C@H](CS)NC(=O)[C@H](CCC(N)=O)NC(=O)[C@H](Cc1ccccc1)NC(=O)[C@H](Cc1ccc(O)cc1)NC(=O)[C@H](CO)NC(=O)[C@H](C)NC(=O)[C@@H]1CCCN1C(=O)[C@@H](N)CS)C(=O)N[C@@H](CCC(=O)O)C(=O)N[C@@H](Cc1c[nH]c2ccccc12)C(=O)N[C@@H](CCCNC(=N)N)C(=O)N[C@@H](CS)C(=O)N[C@@H](CC(=O)O)C(=O)NCC(=O)N[C@@H](Cc1ccccc1)C(=O)N1CCC[C@H]1C(=O)N[C@@H](CC(=O)O)C(=O)N[C@@H](CS)C(=O)N[C@@H](CC(C)C)C(=O)N[C@@H](CC(=O)O)C(=O)NCC(=O)N[C@@H](CO)C(=O)N[C@@H](CC(=O)O)C(=O)N[C@@H](CCC(=O)O)C(=O)N[C@@H](CCC(=O)O)C(=O)NCC(=O)N[C@@H](CS)C(=O)NCC(=O)NCC(=O)NCC(=O)NCC(=O)O` (H-CPASYFQCRRHPHCYPMEWRCDGFPDCLDGSDEEGCGGGG-OH), the pIC50 in assay [1] was 8.52 to 9.10. In addition, the inhibition result in assay [2] and in assay [3] was “Active” in each case.
`CSCC[C@H](NC(=O)[C@@H]1CCCN1C(=O)[C@H](Cc1ccc(O)cc1)NC(=O)[C@H](CS)NC(=O)[C@H](Cc1cnc[nH]1)NC(=O)[C@@H]1CCCN1C(=O)[C@H](Cc1cnc[nH]1)NC(=O)[C@H](CC(N)=O)NC(=O)[C@H](CCCNC(=N)N)NC(=O)[C@H](CS)NC(=O)[C@H](CCCNC(=N)N)NC(=O)[C@H](Cc1ccccc1)NC(=O)[C@H](Cc1ccc(O)cc1)NC(=O)[C@H](CO)NC(=O)[C@H](C)NC(=O)[C@@H]1CCCN1C(=O)[C@@H](N)CS)C(=O)N[C@@H](CCC(=O)O)C(=O)N[C@@H](Cc1c[nH]c2ccccc12)C(=O)N[C@@H](CCCNC(=N)N)C(=O)N[C@@H](CS)C(=O)N[C@@H](CC(=O)O)C(=O)NCC(=O)N[C@@H](Cc1ccccc1)C(=O)N[C@@H](CCC(=O)O)C(=O)N[C@@H](CC(=O)O)C(=O)N[C@@H](CS)C(=O)N[C@H](C(=O)N[C@@H](CC(=O)O)C(=O)NCC(=O)N[C@@H](CO)C(=O)N[C@@H](CC(=O)O)C(=O)N[C@@H](CCC(=O)O)C(=O)N[C@@H](CC(C)C)C(=O)N[C@@H](CC(=O)O)C(=O)N[C@@H](CS)C(=O)NCC(=O)NCC(=O)NCC(=O)NCC(=O)O)C(C)C` (H-CPASYFRCRNHPHCYPMEWRCDGFEDCVDGSDELDCGGGG-OH): the pIC50 in assay [1] was 8.52 to 9.10. Further, the inhibition result in assay [2] and in assay [3] was “Active” each time.
Consider `CSCC[C@H](NC(=O)[C@@H]1CCCN1C(=O)[C@H](Cc1ccc(O)cc1)NC(=O)[C@H](CS)NC(=O)[C@H](Cc1cnc[nH]1)NC(=O)[C@@H]1CCCN1C(=O)[C@H](Cc1cnc[nH]1)NC(=O)[C@H](CC(N)=O)NC(=O)[C@H](CCCNC(=N)N)NC(=O)[C@H](CS)NC(=O)[C@H](CCC(N)=O)NC(=O)[C@H](Cc1ccccc1)NC(=O)[C@H](Cc1ccc(O)cc1)NC(=O)[C@H](CO)NC(=O)[C@H](CCC(=O)O)NC(=O)[C@@H]1CCCN1C(=O)[C@@H](N)CS)C(=O)N[C@@H](CCC(=O)O)C(=O)N[C@@H](Cc1c[nH]c2ccccc12)C(=O)N[C@@H](CCCNC(=N)N)C(=O)N[C@@H](CS)C(=O)N[C@@H](CC(=O)O)C(=O)NCC(=O)N[C@@H](Cc1ccccc1)C(=O)N[C@@H](CCC(=O)O)C(=O)N[C@@H](CC(=O)O)C(=O)N[C@@H](CS)C(=O)N[C@H](C(=O)N[C@@H](CC(=O)O)C(=O)NCC(=O)N[C@@H](CO)C(=O)N[C@@H](CC(=O)O)C(=O)N[C@@H](CCC(=O)O)C(=O)N[C@@H](CC(C)C)C(=O)N[C@@H](CC(=O)O)C(=O)N[C@@H](CS)C(=O)NCC(=O)NCC(=O)NCC(=O)NCC(=O)O)C(C)C` (H-CPESYFQCRNHPHCYPMEWRCDGFEDCVDGSDELDCGGGG-OH), for which the pIC50 in assay [1] was 8.52 to 9.10. Moreover, the inhibition result in assay [2] and in assay [3] was “Active” throughout.
As for `CC[C@H](C)[C@H](NC(=O)[C@H](CS)NC(=O)[C@H](CC(=O)O)NC(=O)[C@@H]1CCCN1C(=O)[C@H](Cc1ccccc1)NC(=O)CNC(=O)[C@H](CC(=O)O)NC(=O)[C@H](CS)NC(=O)[C@H](CCCNC(=N)N)NC(=O)[C@H](Cc1c[nH]c2ccccc12)NC(=O)[C@H](CCC(=O)O)NC(=O)[C@H](CCSC)NC(=O)[C@@H]1CCCN1C(=O)[C@H](Cc1ccc(O)cc1)NC(=O)[C@H](CS)NC(=O)[C@H](Cc1cnc[nH]1)NC(=O)[C@@H]1CCCN1C(=O)[C@H](CC(C)C)NC(=O)[C@H](CC(N)=O)NC(=O)CNC(=O)[C@H](CS)NC(=O)[C@H](CCC(N)=O)NC(=O)[C@H](Cc1ccccc1)NC(=O)[C@H](Cc1ccc(O)cc1)NC(=O)[C@H](CO)NC(=O)[C@H](C)NC(=O)[C@@H]1CCCN1C(=O)[C@@H](N)CS)C(=O)N[C@@H](CC(=O)O)C(=O)NCC(=O)N[C@@H](CO)C(=O)N[C@@H](CC(=O)O)C(=O)N[C@@H](CCC(=O)O)C(=O)N[C@@H](CCCCN)C(=O)NCC(=O)N[C@@H](CS)C(=O)NCC(=O)NCC(=O)NCC(=O)NCC(=O)O` (H-CPASYFQCGNLPHCYPMEWRCDGFPDCIDGSDEKGCGGGG-OH), the pIC50 in assay [1] was 8.52 to 9.10. The inhibition result in assay [2] and in assay [3] was “Active” throughout.
`CC[C@H](C)[C@H](NC(=O)[C@H](CS)NC(=O)[C@H](CC(=O)O)NC(=O)[C@@H]1CCCN1C(=O)[C@H](Cc1ccccc1)NC(=O)CNC(=O)[C@H](CC(=O)O)NC(=O)[C@H](CS)NC(=O)[C@H](CCCNC(=N)N)NC(=O)[C@H](Cc1c[nH]c2ccccc12)NC(=O)[C@H](CCC(=O)O)NC(=O)[C@H](CCSC)NC(=O)[C@@H]1CCCN1C(=O)[C@H](Cc1ccc(O)cc1)NC(=O)[C@H](CS)NC(=O)[C@H](Cc1cnc[nH]1)NC(=O)[C@H](CCCCN)NC(=O)[C@H](Cc1ccc(O)cc1)NC(=O)[C@H](CCC(=O)O)NC(=O)[C@H](CCCNC(=N)N)NC(=O)[C@H](CS)NC(=O)[C@H](CCC(N)=O)NC(=O)[C@H](Cc1ccccc1)NC(=O)[C@H](Cc1ccc(O)cc1)NC(=O)[C@H](CO)NC(=O)[C@H](CCC(=O)O)NC(=O)[C@@H]1CCCN1C(=O)[C@@H](N)CS)C(=O)N[C@@H](CC(=O)O)C(=O)N[C@@H](CO)C(=O)N[C@@H](CO)C(=O)N[C@@H](CC(=O)O)C(=O)N[C@@H](CCC(=O)O)C(=O)N[C@H](C(=O)N[C@@H](CC(=O)O)C(=O)N[C@@H](CS)C(=O)NCC(=O)NCC(=O)NCC(=O)NCC(=O)O)[C@@H](C)O` (H-CPESYFQCREYKHCYPMEWRCDGFPDCIDSSDETDCGGGG-OH): the pIC50 in assay [1] is 8.52 to 9.10. Besides, the inhibition entry in assay [2] and in assay [3] was “Active” in each case.
As to `CSCC[C@H](NC(=O)[C@@H]1CCCN1C(=O)[C@H](Cc1ccc(O)cc1)NC(=O)[C@H](CS)NC(=O)[C@H](Cc1cnc[nH]1)NC(=O)[C@@H]1CCCN1C(=O)[C@H](Cc1cnc[nH]1)NC(=O)[C@H](Cc1ccc(O)cc1)NC(=O)[C@H](CCCNC(=N)N)NC(=O)[C@H](CS)NC(=O)[C@H](CCCCN)NC(=O)[C@H](Cc1ccccc1)NC(=O)[C@H](Cc1ccc(O)cc1)NC(=O)[C@H](CO)NC(=O)[C@H](C)NC(=O)[C@@H]1CCCN1C(=O)[C@@H](N)CS)C(=O)N[C@@H](CCC(=O)O)C(=O)N[C@@H](Cc1c[nH]c2ccccc12)C(=O)N[C@@H](CCCNC(=N)N)C(=O)N[C@@H](CS)C(=O)N[C@@H](CC(=O)O)C(=O)NCC(=O)N[C@@H](Cc1ccccc1)C(=O)N[C@@H](CO)C(=O)N[C@@H](CC(=O)O)C(=O)N[C@@H](CS)C(=O)N[C@H](C(=O)N[C@@H](CC(=O)O)C(=O)NCC(=O)N[C@@H](CO)C(=O)N[C@@H](CC(=O)O)C(=O)N[C@@H](CCC(=O)O)C(=O)N[C@@H](CCC(=O)O)C(=O)N[C@@H](C)C(=O)N[C@@H](CS)C(=O)NCC(=O)NCC(=O)NCC(=O)NCC(=O)O)C(C)C` (H-CPASYFKCRYHPHCYPMEWRCDGFSDCVDGSDEEACGGGG-OH), the pIC50 in assay [1] is 8.52 to 9.10. The inhibition result in assay [2] and in assay [3] was “Active” throughout.
